From patent US11779597B2, “Method of treating Parkinson's and other neurodegenerative diseases” (Vector Vitale IP LLC, priority 2019, dated 2023)
Marks after values point to notes of the source that are not given here.

Columns and labels:
Type in all cases: in vivo
Water content of feces = conditions: LPS rat models; administration during 10 days
Procedure: Feces were collected on the 8th, 21st and 28th days of the experiment. They were weighed (wet weight mww) and dried in a thermostat at t=60° C. for 24 hours and then weighed again (dry weight mdw). The water content of feces (M) was calculated as the percentage difference between wet and dry weight of feces according to the following formula: M=100−(mdw×100%/mww).
(§1) On the 1st day of the experiment, rats were either operated to model hemi-parkinsonism or sham operated. From the 9th to the 18th day of the experiment, the animals were injected either deuterium-depleted water or the test substance, according to their allocation into groups, for 10 days. On the 8th day of the experiment (before initiation of treatment—apomorphine test I) and on the 21st day of the experiment (after the end of administering the test substance —apomorphine test II) the animals underwent an apomorphine test to analyze the development of hemi-parkinsonism which correlates with the number of destroyed dopaminergic neurons. In addition, a follow-up analysis of fecal water content was carried out, i.e., before the start of treatment on the 8th day after the operation, as well as on the 21st (after the end of treatment) and the 28th day (before autopsy). On the 24th day of the experiment, behavioral tests were carried out in all groups. All animals were weighed before autopsy. […]

[1] = system: dopaminergic neurons in the black substance in rat models of Parkinson's disease (6-OHDA); assay: Apomorphine test / destruction of dopaminergic neurons after prophylactic administration; conditions: 6-OHDA rat models
Procedure: Methods: Adult mature rodents were used in the study. […] Before prophylactic administration of the experimental drugs, the animals underwent an open field test to assay their general locomotor activity levels and anxiety. The prophylactic course consisted of 10 daily intraperitoneal injections of the drugs (in the case of combination drug, its components were administered at an interval of 2 hours). After the end of prophylactic course, Parkinson's disease was modelled in the animals. […] Ten days after the last (second) apomorphine test, the animals' behavioral responses were assessed in the open field test followed by euthanasia and analysis of functional (metabolic and phenotypic) profiles of phagocytes of different localization. Thus, the study of the functional profile of phagocytes in rat models of Parkinson's disease was performed on day 28 after the end of the course of prophylactic treatment with the experimental drugs. Resident peritoneal macrophages were isolated from sterile cell suspension of peritoneal exudate; enrichment of the suspension was carried out by 2-hour adhesion. Non-adherent and dead cells were separated by centrifugation. Functional characteristics of circulating phagocytes (monocytes and neutrophils) were evaluated in whole blood taken into a tube containing EDTA used as an anticoagulant. Mononuclear and polymorphonuclear phagocytes were analyzed on a flow cytofluorimeter using a gating method. Phagocytes of microglia were isolated using a Percoll density gradient. To assess the phenotypic profile of phagocytes, expression indices of the pan-phagocytic marker CD14 (co-receptor of the bacterial lipopolysaccharide) and the marker of alternative polarization of phagocytes CD206 (mannose receptor 1) were used. […] The hemogram parameters were analyzed on the hematological analyzer Particle counter model PCE 210 (ERMA, Japan) adapted for the study of blood cells of rats and mice.

[2] = system: circulating monocytes and granulocytes; assay: Functional and phenotypic properties of circulating phagocytes in LPS rat models; conditions: animal models of PD
Procedure: as §1
(§2) To assess the anti-inflammatory and immunomodulating effects of the test substance, microglia and peritoneal macrophages were isolated. Phenotypic and functional features of peripheral blood phagocytes were evaluated without their fractioning (using whole blood). […]
(§3) Phagocytic activity of microglia, peritoneal macrophages and peripheral blood phagocytes was analyzed on a flow cytometer using FITC-labeled S. aureus Wood 46 cells as an object of phagocytosis. […]
(§4) Oxidative metabolism of phagocytes of various localization was analyzed by flow cytometry using the cell-permeant 2′7′-dichlorodihydrofluorescein-diacetate (DHP) (carboxy-H2DCFDA, Invitrogen, USA) which is converted by intracellular esterases to the nonfluorescent membrane-impermeable carboxy-H2DCF form.
(§5) The phenotypic profile of phagocytes of various localization was characterized by the expression of markers of functional maturity and metabolic polarization (CD206, CD80 and CD86), which was determined by flow cytometry and the use of monoclonal antibodies of appropriate specificity marked with fluorescent dyes (Abcam, Becton Dickinson).

peritoneal macrophages [3] = assay: Functional profile of peritoneal macrophages in 6-OHDA rat models after prophylactic administration; conditions: prophylactic i.p.
Procedure: Methods: Adult mature rodents were used in the study. […] Before prophylactic administration of the experimental drugs, the animals underwent an open field test to assay their general locomotor activity levels and anxiety. The prophylactic course consisted of 10 daily intraperitoneal injections of the drugs (in the case of combination drug, its components were administered at an interval of 2 hours). After the end of prophylactic course, Parkinson's disease was modelled in the animals. […] Ten days after the last (second) apomorphine test, the animals' behavioral responses were assessed in the open field test followed by euthanasia and analysis of functional (metabolic and phenotypic) profiles of phagocytes of different localization. Thus, the study of the functional profile of phagocytes in rat models of Parkinson's disease was performed on day 28 after the end of the course of prophylactic treatment with the experimental drugs. Resident peritoneal macrophages were isolated from sterile cell suspension of peritoneal exudate; enrichment of the suspension was carried out by 2-hour adhesion. Non-adherent and dead cells were separated by centrifugation. Functional characteristics of circulating phagocytes (monocytes and neutrophils) were evaluated in whole blood taken into a tube containing EDTA used as an anticoagulant. Mononuclear and polymorphonuclear phagocytes were analyzed on a flow cytofluorimeter using a gating method. Phagocytes of microglia were isolated using a Percoll density gradient. To assess the phenotypic profile of phagocytes, expression indices of the pan-phagocytic marker CD14 (co-receptor of the bacterial lipopolysaccharide) and the marker of alternative polarization of phagocytes CD206 (mannose receptor 1) were used. To characterize the metabolic profile, oxidative metabolism and phagocytic activity of microglia as well as the pathway of arginine metabolism were studied using flow cytometry and spectrometric methods respectively. FITC-labeled Staphylococcus aureus Wood 46 was used as the object of phagocytosis. The hemogram parameters were analyzed on the hematological analyzer Particle counter model PCE 210 (ERMA, Japan) adapted for the study of blood cells of rats and mice.

peritoneal macrophages [4] = assay: Functional and phenotypic properties of peritoneal phagocytes in LPS rat models; conditions: animal models of PD
Procedure: as §1, §2, §3, §4, §5

circulating leukocytes = assay: Blood count values in LPS rat models; conditions: day 28
Procedure: as §1
The blood count values were analyzed at the completion of the experiment (day 28). The absolute number of leukocytes, as well as the absolute and relative numbers of lymphocytes, monocytes and neutrophilic granulocytes were calculated.

[5] = Body weight in LPS rat models of parkinsonism; conditions: for body weight: in g (unit assumed)
Procedure: On the 1st day of the experiment, rats were either operated to model hemi-parkinsonism or sham operated. From the 9th to the 18th day of the experiment, the animals were injected either deuterium-depleted water or the test substance, according to their allocation into groups, for 10 days. On the 8th day of the experiment (before initiation of treatment—apomorphine test I) and on the 21st day of the experiment (after the end of administering the test substance —apomorphine test II) the animals underwent an apomorphine test to analyze the development of hemi-parkinsonism which correlates with the number of destroyed dopaminergic neurons. In addition, a follow-up analysis of fecal water content was carried out, i.e., before the start of treatment on the 8th day after the operation, as well as on the 21st (after the end of treatment) and the 28th day (before autopsy). On the 24th day of the experiment, behavioral tests were carried out in all groups. All animals were weighed before autopsy. During autopsy, ⅔ of animals from each group were sacrificed by cervical dislocation and brain and blood samples were collected for further biochemical and immunological tests. ⅓ of the animals were used for further immunohistochemical studies of the brain; for this purpose, under anesthesia, a procedure of fast, controlled and uniform fixation of the whole body of the animal was performed using 4% paraformaldehyde perfused through the heart of the rat to obtain the best preservation of the brain architecture for immunohistochemistry. Gage G J, et al., J Vis Exp. 2012 Jul. 30; (65).

## ^64Zn-enriched zinc aspartate [^64Zne-asp]
Water content of feces
  water content of feces: did not cause any significant changes
[1]; prophylactic 10 daily i.p. injections, at completion of the experiment
  Number of animals with 100% destruction of neurons (%): 35%
[1]; prophylactic i.p., apomorphine test
  Rate of rotational movements in animals with 100% destruction of neurons (r/30 min): 224.3 ± 35.9 r/30 min
[1]; prophylactic i.p., versus control 75%
  animals with complete loss of neurons, less than in the control: over 50%
[2]
  expression levels of all three markers (CD206, CD80, CD86) by circulating phagocytes: increase
  functional reserve of oxidative metabolism of circulating phagocytes: restore
  oxidative metabolism of circulating phagocytes of both populations: sharply reduced
Peritoneal macrophages [3]
  CD206 expression level in CD14+ peritoneal phagocytes: further decrease
  NO synthesis by peritoneal macrophages: prevented an increase
  arginase activity of peritoneal macrophages: absence of any changes
  phagocytosis by peritoneal macrophages: prevented an increase
Peritoneal macrophages [3]; listed as zinc-based drug
  NO synthesis by peritoneal macrophages: decrease
Peritoneal macrophages [4]
  expression of all phenotypic markers in peritoneal macrophages: significant increase
  oxidative metabolism of the peritoneal exudate cells: decrease
  phagocytic activity of the peritoneal exudate cells: activation
Circulating leukocytes
  absolute number of circulating leukocytes: did not influence
[5]; 1st day
  body weight: 193.78 ± 22.21
[5]; 28th day
  body weight: 219.8 ± 18.31
[5]; between 1st and 28th day
  body weight changes, %: 13* %
[5]; day 28 versus day 1 and versus LPS + deuterium-depleted water, listed as 64Zn-asp
  body weight of LPS rat models (in words): statistically significant increase
